Earlier results on 38 sequences are cited in article PMC10812672, “Short Antimicrobial Peptide Derived from the Venom Gland Transcriptome of Pamphobeteus verdolaga Increases Gentamicin Susceptibility of Multidrug-Resistant Klebsiella pneumoniae” (Antibiotics, 2023).

For data set [1], the system named is E. coli. The conditions noted are these: custom database compiled from public databases and PubMed; averaged where multiple reports; cited from earlier work. The text has this:
(§1) Agelaia-CP Agelaia pallipes […] […] 13 1 4.00 1.25 s IsCT [EK7. GP8. Opisthacanthus SK11] madagascariensi […] 13 4 2.00 1.17 s Opisthacanthus IsCT [EK7] madagascariensi […] 13 3 2.00 1.00 s Opisthacanthus IsCT [WL6. SK11 ] madagascariensi ILGKILKGIKKLF 13 4 2.00 2.00 s Opisthacanth ... || (+ 2 further places)

The test system of data set [2] is S. aureus. The conditions noted are these: custom database compiled from public databases and PubMed; averaged where multiple reports; cited from earlier work.
From the text: as §1

Consider “ACHAHCQSVGRRGGYCGNFRMTCYCY [Midgut defensin G2, cDB AMP; Haemaphysalis longicornis]”, for which the “MIC E. coli” value in data set [1] is given as 5.94 µM. The “MIC S. aureus” value in data set [2] is 5.09 µM.

As for “ACQFWSCNSSCISRGYRQGYCWGIQYKYCQCQ [Defensin-1, cDB AMP; Centruroides limpidus limpidus]”, the “MIC E. coli” value in data set [1] is given as 13.08 µM. For the same sequence, the “MIC S. aureus” value in data set [2] is given as 13.08 µM.

In the case of “CRRLCYKQRCVTYCRGR [Gomesin, cDB AMP; Acanthoscurria gomesiana]”, in data set [1], the “MIC E. coli” value is on record as 0.80 µM. For the same sequence, the “MIC S. aureus” value in data set [2] was 12.10 µM.

On to “FFGSLLSLGSKLLPSVFKLFQRKKE [Css54, cDB AMP; Centruroides suffusus suffusus]”, for which the “MIC E. coli” value in data set [1] was 4.35 µM. Besides, the “MIC S. aureus” value in data set [2] is listed as 4.35 µM.

Take “FIGAIARLLSKIFGKR [Bmkn2, cDB AMP; Mesobuthus martensii]”: the “MIC E. coli” value in data set [1] is recorded as 1.50 µM. In addition, in data set [2], the “MIC S. aureus” value is given as 0.60 µM.

As to “FLFKLIPKAIKGLIKAFK [AcrAP1a [S4K.H8K.S11K.S15K]] [cDB AMP; Androctonus crassicauda]”, in data set [1], the “MIC E. coli” value is recorded as 8.00 µM. Moreover, the “MIC S. aureus” value in data set [2] is 4.00 µM.

For “FLFKLIPKAIKGLIKAFK [AcrAP1a, cDB AMP; Androctonus crassicauda]”, the “MIC E. coli” value in data set [1] is 4 µM. Moreover, the “MIC S. aureus” value in data set [2] was 8 µM.

On to “FLFKLIPKAIKGLLKAFK [AcrAP2 [S4K.N8K.S11K.S15K], cDB AMP; Androctonus crassicauda]”, for which the “MIC E. coli” value in data set [1] is on record as 8.00 µM. For the same sequence, in data set [2], the “MIC S. aureus” value is given as 4.00 µM.

Consider “FLFKLIPKAIKGLVKAIRK [AaeAP2 [S4.8.15K; A11K. N19K], cDB AMP; Androctonus aeneas]”, for which the “MIC E. coli” value in data set [1] was 10.99 µM. Moreover, the “MIC S. aureus” value in data set [2] is 8.24 µM.

“FLFKLIPKAIKKLISKFK [AamAP1 [S4K.H8K.G11.12K.A16K], cDB AMP; Androctonus amoreuxi]”: the “MIC E. coli” value in data set [1] is given as 7.50 µM. Also, the “MIC S. aureus” value in data set [2] was 5.00 µM.

Regarding “FLFKLIPKVIKGLVKAIRK [AaeAP1 [S4.8.15K; A11K. N19K], cDB AMP; Androctonus aeneas]”, the “MIC E. coli” value in data set [1] was 10.85 µM. Also, the “MIC S. aureus” value in data set [2] was 8.14 µM.

For “FLFSLIPSAISGLISAFKGRR [Marmelittin, cDB AMP; Mesobuthus martensii]”, the “MIC E. coli” value in data set [1] is recorded as 6.21 µM. Also, the “MIC S. aureus” value in data set [2] was 6.48 µM.

Turning to “FLGSLFSIGSKLLPGVIKLFQRKKQ [Im-5, cDB AMP; Isometrus maculatus]”, the “MIC E. coli” value in data set [1] is 10.00 µM. In data set [2], the “MIC S. aureus” value is on record as 3.75 µM.

With “FWGALAKGALKLIGSLFSSFSKKD [Pandinin-2 [P14G], cDB AMP; Pandinus imperator]”, in data set [1], the “MIC E. coli” value is listed as 12.50 µM. In addition, the “MIC S. aureus” value in data set [2] is listed as 12.50 µM.

On to “GFGMALKLLKKVL [Macropin 1, cDB AMP; Macropis fulvipes]”, for which, in data set [1], the “MIC E. coli” value was 3.00 µM. Besides, the “MIC S. aureus” value in data set [2] was 3.70 µM.

With “GFLSILKKVLPKVMAHMK [Melectin, cDB AMP; Melecta albifrons]”, the “MIC E. coli” value in data set [1] was 10.37 µM. The “MIC S. aureus” value in data set [2] is 12.80 µM.

As for “GLHKVMREVLGYERNSYKKFFLR [Ixosin, cDB AMP; Ixodes sinensis]”, in data set [1], the “MIC E. coli” value is recorded as 10.45 µM. For the same sequence, the “MIC S. aureus” value in data set [2] was 1.29 µM.

Take “GLLSKFGRLARKLARVIPKV [Pilosulin-2, cDB AMP; Myrmecia pilosula]”: the “MIC E. coli” value in data set [1] is on record as 1.33 µM. In data set [2], the “MIC S. aureus” value is listed as 4.00 µM.

With “GMASLLAKVLPHVVKLIK [Codesane, cDB AMP; Colletes daviesanus]”, in data set [1], the “MIC E. coli” value is given as 3.70 µM. In addition, in data set [2], the “MIC S. aureus” value was 3.70 µM.

For the sequence “GMWSKILGHLIR [HAL-1, cDB AMP; Halictus sexcinctus]”, the “MIC E. coli” value in data set [1] is 3.80 µM. For the same sequence, in data set [2], the “MIC S. aureus” value was 7.70 µM.

Regarding “ILGKIWKIKKLF [IsCT precursor, cDB AMP; Opisthacanthus madagascariensis]”, the “MIC E. coli” value in data set [1] is 2.00 µM. Also, in data set [2], the “MIC S. aureus” value is listed as 2.00 µM.

Consider “ILKKIWKPIKKLF [IsCT-P, cDB AMP; Opisthacanthus madagascariensis]”, for which the “MIC E. coli” value in data set [1] is recorded as 2.00 µM. The “MIC S. aureus” value in data set [2] is reported as 1.00 µM.

For the sequence “INLKAIAALAKKLLG [Mastoparan-like peptide 12c, cDB AMP; Vespa magnifica]”, the “MIC E. coli” value in data set [1] is reported as 3.90 µM. In addition, the “MIC S. aureus” value in data set [2] is recorded as 1.95 µM.

On to “LKWGAILKHIIK [PNG-1/3, cDB AMP; Panurgus calcaratus]”, for which, in data set [1], the “MIC E. coli” value was 3.70 µM. Besides, the “MIC S. aureus” value in data set [2] is listed as 11.70 µM.

On to “LNWGAILKHIIK [PNG-1, cDB AMP; Panurgus calcaratus]”, for which the “MIC E. coli” value in data set [1] is reported as 3.70 µM. For the same sequence, in data set [2], the “MIC S. aureus” value is on record as 10.60 µM.

On to “LNWGAILKKIIK [PNG-1/9, cDB AMP; Panurgus calcaratus]”, for which, in data set [1], the “MIC E. coli” value is 4.30 µM. In addition, the “MIC S. aureus” value in data set [2] was 7.30 µM.

As to “LNWGALLKHLLK [PNG-1/19, cDB AMP; Panurgus calcaratus]”, the “MIC E. coli” value in data set [1] is recorded as 3.80 µM. The “MIC S. aureus” value in data set [2] is 6.70 µM.

As for “LNWGKILKHIIK [PNG-1/6, cDB AMP; Panurgus calcaratus]”, the “MIC E. coli” value in data set [1] is on record as 4.00 µM. For the same sequence, the “MIC S. aureus” value in data set [2] is reported as 8.70 µM.

Regarding “LNWKAILKHIIK [PNG-1/5, cDB AMP; Panurgus calcaratus]”, in data set [1], the “MIC E. coli” value is reported as 2.30 µM. Also, the “MIC S. aureus” value in data set [2] is reported as 5.30 µM.

Consider “PFKLSLHL [Jellein-1, cDB AMP; Apis mellifera]”, for which the “MIC E. coli” value in data set [1] is recorded as 2.62 µM. Moreover, the “MIC S. aureus” value in data set [2] is listed as 10.48 µM.

Regarding “QCRRLCYKQRCVTYCRGR [Gomesin c(1-18)[Gln1], cDB AMP; Acanthoscurria gomesiana]”, the “MIC E. coli” value in data set [1] was 0.48 µM. The “MIC S. aureus” value in data set [2] is 1.44 µM.

“RRWCFRVCYKGFCYRKCR [Polyphemusin-2, cDB AMP; Limulus polyphemus]”: the “MIC E. coli” value in data set [1] is recorded as 3.87 µM. Also, in data set [2], the “MIC S. aureus” value was 5.14 µM.

In the case of “RRWCFRVCYRGFCYRKCR [Polyphemusin-1, cDB AMP; Limulus polyphemus]”, in data set [1], the “MIC E. coli” value is reported as 0.9 µM. For the same sequence, the “MIC S. aureus” value in data set [2] is 0.3 µM.

For “SIGRRGGYCAGIIKQTCTCYR [Longicin (53-73), cDB AMP; Haemaphysalis longicornis]”, in data set [1], the “MIC E. coli” value is reported as 2.00 µM. For the same sequence, in data set [2], the “MIC S. aureus” value is given as 2.00 µM.

Turning to “VNWKKILGKIIKVAK [Lasioglossin LL-II, cDB AMP; Lasioglossum laticeps]”, the “MIC E. coli” value in data set [1] is 1.40 µM. For the same sequence, the “MIC S. aureus” value in data set [2] is reported as 9.00 µM.

As to “VNWKKILGKIIKVVK [Lasioglossin LL-III, cDB AMP; Lasioglossum laticeps]”, the “MIC E. coli” value in data set [1] was 1.40 µM. Moreover, in data set [2], the “MIC S. aureus” value is on record as 3.90 µM.

Take “VNWKKVLGKIIKVAK [Lasioglossin LL-I, cDB AMP; Lasioglossum laticeps]”: the “MIC E. coli” value in data set [1] is listed as 1.70 µM. Also, the “MIC S. aureus” value in data set [2] is 14.3 µM.

Regarding “VWLSALKFIGKHLAKHQLSKL [Lycosin-II, cDB AMP; Lycosa singoriensis]”, the “MIC E. coli” value in data set [1] is 12.50 µM. Besides, the “MIC S. aureus” value in data set [2] was 3.10 µM.
